# Test results reported in ChEMBL document CHEMBL3507680, “University of Dundee, Gates Library screen for HepG2 cell viability”.
# Assay: Human HepG2 cell viability assay in 384 well format
# Type: toxicity, cell-based
# Set-up: dose 125 nL, time 70.5 hour; concentration not given beside the values
# Settings: HepG2 cells, read-out: Inhibition
row,SMILES,cytotoxicity at 70.5 h [%]
1,Cc1cc2ncn(C(=O)N3CCOCC3)c2cc1C,-5.67
2,CC1(C)Oc2ccc(S(=O)(=O)NCCCn3ccnc3)cc2NC1=O,28.6
3,Cn1cc(CN2CCC3(CCCN(Cc4ccccn4)C3)CC2)cn1,-5.87
4,Cc1ccc(CS(=O)(=O)N2CC[C@H]3[C@H]2CCN3C)cc1,-5.67
5,Cn1cc(C(=O)NC[C@@H]2OC[C@H]3CN(S(C)(=O)=O)CC[C@H]32)cn1,-3.04
6,c1nc2c(c(C3CC3)n1)CCN(Cc1ccoc1)CC2,18.1
7,COCC1COCCC12CCN(C(=O)CCc1ccccc1)CC2 (stereo unspecified),5.59
8,CCC(=O)N1CCC(c2nc3ccc(NC(C)C)cn3n2)CC1,4.46
9,C[C@@H]1C[C@@H]2CCN(C(=O)c3cnccn3)C[C@H]2O1,-0.399
10,CCn1nnc2c1C(COC)CN(C(=O)Cc1cccs1)C2 (stereo unspecified),-7.34
11,c1cnc(N2C[C@H]3CCN(c4cccnc4)C[C@H]3C2)nc1,-6.6
12,COCCO[C@@H]1CCN(C(=O)c2ccc(C)o2)[C@@H]1Cc1cnn(C)c1,-2.12
13,Cc1noc([C@H]2CC[C@@H]3[C@@H](CCN3S(C)(=O)=O)O2)n1,1.24
14,Cc1cccc(CN2CC[C@@H]3[C@@H]2CCN3C(=O)c2cnoc2C)n1,0.0209
15,CC(C)NC(=O)N1CCN(C(=O)N(C)C)CC2(CC(=O)N(C)C2)C1 (stereo unspecified),-6.79
16,CCC1=N[C@@]2(CC[C@@H]3CN(C(=O)NC(C)C)C[C@@H]32)C(=O)N1C,-1.59
17,CC1CCc2nn(CCNC(=O)C3CCCC3)c(=O)cc2C1 (stereo unspecified),-3.14
18,CS(=O)(=O)N1CC(c2nc(N)ncc2-c2ccc(F)cc2)C1,-2.15
19,CNC(=O)C1(CCCc2ccccn2)CN(Cc2scnc2C)C1,27.6
20,COCCNc1ccc(CC2CCNC2)cn1 (stereo unspecified),-5.62
21,CC(=O)N1CC(c2n[nH]c3ncccc23)C1,28.9
22,Cc1cc(N2CCN(C(=O)c3cccnc3)CC2)nc(C)n1,-2.72
23,O=C(NCCO)c1sc2ncccc2c1C1CN(C2CCCC2)CCO1 (stereo unspecified),-3.18

row,SMILES,cytotoxicity at 70.5 h [%]
1,Cc1nccn1CC1CCCN(S(=O)(=O)c2cnn(C)c2)C1 (stereo unspecified),-2.81
2,Fc1cccc(Oc2nccnc2C2CCN(C3CCOCC3)CC2)c1,0.625
3,O=C(C1CC1)N1C[C@H]2CCCN(S(=O)(=O)c3ccc(Cl)s3)[C@H]2C1,-0.267
4,Cc1cnc2[nH]c(C(F)(F)F)c(CN3CCSCC3)c2c1,-0.92
5,Cc1cc(C)n(CC(=O)N2CCCC(c3cc4cccnc4[nH]3)C2)n1 (stereo unspecified),-3.24
6,CC(C)C(NC(=O)c1cnc(N2CCOCC2)nc1)c1cccs1 (stereo unspecified),7.3
7,Cc1ccc2nc(C)cc(NCCNS(=O)(=O)c3cn(C)nc3C)c2c1,0.534
8,OC1(c2ccccc2F)CCN(Cc2ccccc2N2CCCC2)CC1,12.6
9,Cc1c(CN2CCCC(O)C2)[nH]c2ccc(F)cc12 (stereo unspecified),0.643
10,COc1ccc2c(c1)NC(C1CCN(C(=O)C(C)C)CC1)NS2(=O)=O (stereo unspecified),-3.05
11,CCOCCCNS(=O)(=O)c1ccc2c(c1)NC(=O)C(C)O2 (stereo unspecified),12.7
12,CC(C)(C)OC(=O)N[C@@H]1C[C@@H](O)CN(C(=O)c2cccc(F)c2)C[C@H]1O,-3.14
13,CNc1cncc(C2CCN(S(C)(=O)=O)CC2)n1,-2.96
14,Cc1cc(Oc2ccccc2)nc(C2CCCCN2)n1 (stereo unspecified),13.4
15,Cc1noc(C)c1CC(=O)NCC1(O)CCCN(c2ccccn2)C1 (stereo unspecified),13.4
16,NC(=O)c1cc(CC2CCCN(Cc3cnccn3)CC2)ncn1 (stereo unspecified),-2.22
17,COCCNCc1cc2cc(C)cc(C)c2[nH]c1=O,-4.55
18,COCC(=O)N1CC(c2n[nH]cc2C)C1,-6.26
19,Fc1ccccc1Oc1nccnc1C1CCCN(C2CCOCC2)C1 (stereo unspecified),-9
20,Cc1cc(O)cc(C2CCCN2C(=O)c2ccn(C)n2)n1 (stereo unspecified),10.2
21,Cc1cc(=O)[nH]c(=O)n1Cc1ncc(-c2ccccc2C(=O)O)s1,-0.441
22,COCCN1CCC(c2nc3cc(C)ccc3[nH]2)CC1,-8.34
23,Cc1cc(C)nc(C2CCN(C3CCOCC3)C2)n1 (stereo unspecified),-11.5

row,SMILES,cytotoxicity at 70.5 h [%]
1,O=C(O)c1ccccc1-c1ccc(Cn2c(=O)cc[nH]c2=O)cc1,-0.721
2,Oc1nc(C2CCN(Cc3ccccn3)CC2)cc2ccccc12,32.3
3,COc1cccc(CN2CCCC2c2cncc(Nc3nncs3)n2)c1 (stereo unspecified),12.9
4,c1ccc(CCN2CCCC2c2cncc(Nc3nncs3)n2)cc1 (stereo unspecified),10.6
5,O=C(c1cccc(O)n1)N1CCC(O)(CN2CCC(F)(F)CC2)C1 (stereo unspecified),-8.18
6,CN(C)CC(=O)N1CCOCC(Cc2ccccn2)C1 (stereo unspecified),-13.2
7,O[C@H]1CN(Cc2ccnc(N3CCCC3)n2)CC[C@@]12CCCO2,-9.21
8,CCC(=O)N1CCC(c2nc(C)c3c(n2)N(C)CCC3)CC1,-2.67
9,CC(=O)N1CCC(c2nccnc2Nc2cnccn2)CC1,-10.2
10,Cc1cc(N2CCOC(c3ccc(C(N)=O)cn3)C2)ncn1 (stereo unspecified),19.9
11,Cn1ccc(NC(=O)CN2CCC(Oc3cnccn3)CC2)n1,1.93
12,O=C(NC[C@H]1CC[C@H](c2ccnc3ncnn32)CC1)C1CC1,22.4
13,CN1N=C(C(=O)NCCc2csc(-c3ccccc3)n2)CCC1=O,-4.18
14,CC(Cc1ccccc1F)C(=O)Nc1cccc(OCC(N)=O)c1 (stereo unspecified),-2.21
15,Cc1ccc(C(=O)NS(=O)(=O)Cc2ccc(F)cc2)cc1S(C)(=O)=O,-3.12
16,NC(=O)N1CCC(NCc2cc(C(F)(F)F)ccc2Cl)CC1,-5.57
17,O=C(CCc1nnc(-c2ccccc2)o1)N1CCCC1c1ccccn1 (stereo unspecified),1.97
18,Cc1ccc(O)c(CNc2cccc(CN3CCSCC3)c2)n1,1.03
19,CN(Cc1cnn(C)c1)CC(O)c1ccc2c(c1)OCCCO2 (stereo unspecified),17.4
20,CC(CNC(=O)c1cc(-n2cccn2)ccn1)Cn1ccnc1 (stereo unspecified),-0.0471
21,Cc1c(C(=O)N(C)CC(F)(F)F)nnn1-c1ccccc1Cl,6.88
22,CC(CNC(=O)c1cccc(-n2cccn2)c1)Cn1ccnc1 (stereo unspecified),2.48
23,CN(C)CCOc1ccccc1N1CCN(C(=O)C(C)(C)C#N)CC1,-0.199

row,SMILES,cytotoxicity at 70.5 h [%]
1,CN(C)c1ccc(CNC(=O)Nc2ccc(S(=O)(=O)C(F)F)cc2)cc1,-0.147
2,COc1ccccc1N1CCN(C(=O)c2ccoc2)CC1,-6.02
3,Cc1cccc(NCC(=O)NC2(C#N)CCCC2)c1C(=O)N1CCCC1,2.28
4,O=c1oc(-c2cccs2)nn1CC1(O)CCCCC1,-1.35
5,CS(=O)(=O)c1ccc(NC(=O)NCc2ccc(F)cc2)cn1,-0.885
6,COc1ccc(C(=O)Nc2nncs2)cn1,27.2
7,COCCNc1ccc(CC2CCCNC2)cn1 (stereo unspecified),-7.04
8,CCn1nc(C)c(-c2cncn2Cc2ccccc2CN(C)C)c1C,-3.79
9,Cc1ccnn1CCC(=O)N1CCCC1c1cc2cccnc2[nH]1 (stereo unspecified),1.14
10,OC1(c2ccc(F)cc2)CCN(Cc2ccccc2N2CCCC2)CC1,52.6
11,COc1ccc(CN2CCc3sccc3C2C)cc1CN1CCOCC1 (stereo unspecified),-0.0983
12,CC(C)c1[nH]c2ncccc2c1CN1CCOCC1,4.28
13,CNc1nc(C2CCCN2)nc2c1CCN(S(=O)(=O)C1CCCCC1)C2 (stereo unspecified),12.5
14,COc1cccc(Nc2nc(N3CCCC3)nc3c2CNCC3)c1,43.7
15,CCc1nccn1-c1cccc(C2CCCN2)n1 (stereo unspecified),-1.73
16,Cn1nc(C2CNCCO2)cc1CCOc1ccc(Cl)cc1 (stereo unspecified),7.97
17,CN1Cc2c(C(=O)Nc3cccnc3)ncn2-c2ccccc2S1(=O)=O,-8.44
18,O=C(c1cnoc1)N1CCC[C@]2(C[C@H](Oc3ncccc3F)CO2)C1,-3.55
19,CCN1CCC2(COCc3cnc(NCC4CC4)nc32)C1 (stereo unspecified),-4.64
20,O=C(c1cnoc1)N1CCC[C@]2(C[C@@H](OCc3ccccn3)CO2)C1,-9.96
21,COC[C@@]12CCO[C@@H]1CCN(Cc1ccccc1F)C2,-9.38
22,O=C(NCc1cn2c(n1)CN(CC1CCOCC1)CC2)C1CCC1,-2.34
23,O=C(CO[C@@H]1CC[C@H]2[C@H]1OCCN2CC1CCOCC1)N1CCCC1,-0.662

row,SMILES,cytotoxicity at 70.5 h [%]
1,CCN1CC2(CC1=O)CN(Cc1cnn(C)c1)CCN(C(=O)C(C)C)C2 (stereo unspecified),-4.6
2,CCc1ccc(CN2CCC3(CC2)CNC(=O)CO3)o1,-3.42
3,Cc1cccc(CN2C(=O)CO[C@@H]3CN(Cc4nccn4C)C[C@H]32)c1,-3.81
4,Cc1cccc(CN2C(=O)CO[C@@H]3CN(CCO)C[C@H]32)c1,-3.53
5,CC(C)Nc1ccc2nc(C3CCN(C(C)C)CC3)nn2c1,-2.64
6,O=C(Nc1cnccn1)[C@H]1COC[C@H]2CN(C3CCCC3)C[C@H]21,-2.04
7,CNC(=O)CC1CC2(CCN(Cc3nccs3)CC2)c2ccccc21 (stereo unspecified),0.687
8,CO[C@@H]1CC[C@H]2[C@H]1OCCN2CC1CCOCC1,-2.79
9,CC(C)Nc1ncnc2c1CCN(C(=O)Cc1ccccn1)CC2,26.6
10,O=S(=O)(C1CC1)N1CCOCC2(CCN(c3ccccn3)C2)C1 (stereo unspecified),36.2
11,CCN1CC2(CCNCC2)COc2ccccc2S1(=O)=O,-15.6
12,O=c1ccc2c(n1CCN1CCCC1)CCN(Cc1ccoc1)CC2,-5.75
13,CCOCC1CN(C)Cc2cnn(CC3CCCC3)c21 (stereo unspecified),-5.11
14,c1cnc(NCc2ncn3c2CN(Cc2cccnc2)CCC3)nc1,-2.74
15,Cn1cc(C(=O)NCc2cn3c(n2)CN(Cc2ccccn2)CC3)cn1,-1.02
16,Cc1cccc(CN2CC[C@@H]3[C@@H]2CCN3C(=O)c2ccno2)n1,-4.67
17,CN(C)C(=O)COC[C@H]1CC[C@@H]2[C@@H](CCN2Cc2ccccn2)O1,-7.44
18,c1cc(CN2C[C@@H]3COC[C@]3(COCC3CC3)C2)ccn1,11.6
19,COCCCN(Cc1ccccn1)Cc1ccnn1C1CCCCO1 (stereo unspecified),13.4
